In ChEMBL document CHEMBL4513160, “CO-ADD screening of MMV (CH) - Small Polar Library”:
In brackets after ≈: the same amount, converted by molar mass.

Each compound was assayed on Pseudomonas aeruginosa (assay: Antibacterial activity against Pseudomonas aeruginosa PAO397 [PAO1 d(mexAB-oprM) d(mexCD-oprJ) d(mexEF-oprN) d(mexJKL) d(mexXY) d(opmH)] (CO-ADD:GN_211); MIC in CAMBH media using NBS plates, by OD(600)). Conditions: ASSAY_TEST Inhibition of Bacterial Growth, detection method Absorption (OD600), MEDIA CAMHB, plate type 384well, CORNING #3640, time 18 hr.
Format: functional

SMILES	MIC
Cc1c(C(=O)NC2=NCCS2)oc2ccccc12	> 300 µM
NCC(O)c1ccc(-c2ccccc2)cc1 (centres undefined)	> 300 µM
NCCNc1ccc2ccccc2n1	> 300 µM
CC(C)CCC(=O)N[C@@H]1CN(C)C[C@H]1CN(C)C	> 300 µM
Cc1ccc(C(=O)N2CCN(c3nccs3)CC2)o1	> 300 µM
OCCCN(CCO)Cc1c(Cl)ccc2cccnc12	> 300 µM
c1cn2c(n1)COCC2	> 300 µM
Cc1cscc1C(=O)Nc1ncnn1C	> 300 µM
CC1COC2(CCN(C(=O)c3ccc(Cl)s3)CC2)O1 (centres undefined)	> 300 µM
CCc1cccc(S(=O)(=O)N2CCC(NC)C2)c1 (centres undefined)	> 300 µM
NCc1cnn(-c2ccc(Cl)cc2)c1	> 300 µM
OCCNCCNCc1ccc(-c2cccc(Cl)c2)o1	> 300 µM
c1ccc(Nc2nccs2)nc1	> 300 µM
CCc1cccc2c1OCCC2N (centres undefined)	> 300 µM
CC[C@H](CO)Nc1ccnc2cc(Br)cnc12	> 300 µM
O=C(NCCO)Nc1nc2ccccc2s1	> 300 µM
c1ccc(N2CCN(c3ncccn3)CC2)nc1	> 300 µM
CN(Cc1ccc(O)cc1)C(=O)c1cc(Cl)c[nH]1	> 300 µM
O=C(Nc1cc[nH]n1)c1csc(I)c1	> 300 µM
Cc1ccncc1NC1CS(=O)(=O)c2ccccc21 (centres undefined)	> 300 µM
O=C(CSCCO)Nc1ncc(-c2ccccc2)s1	200 µM (≈ 58.9 µg/mL)
Cn1c(CN)nc2cc(Cl)ccc21	> 300 µM
CN1CCCC1CCSc1nc(N)c(C#N)cc1C#N (centres undefined)	> 300 µM
COc1c(C(=O)N2CCOCC2)sc2ccc(F)cc12	> 300 µM

SMILES	MIC
NCCS(=O)(=O)N1CCCc2ccccc21	> 300 µM
Cn1ncnc1NC(=O)c1ccc(C#N)cc1	200 µM (≈ 45.4 µg/mL)
C1CCC(C2CCNCC2)OC1 (centres undefined)	> 300 µM
CS(=O)(=O)c1ccc(CN)o1	> 300 µM
NS(=O)(=O)NCC1CCN(c2cccc(Br)c2)C1 (centres undefined)	> 300 µM
NCc1cccc(-c2nccs2)c1	> 300 µM
NC(=O)C1CCN(Cc2ccc(Br)c3cccnc23)C1 (centres undefined)	> 300 µM
N#Cc1nnc(-c2ccccc2)o1	> 300 µM
CSC(C)(C)COC(=O)c1ccc(-n2ccnc2)nc1	> 300 µM
CCC(C#N)NC(=O)c1cnc(OC(C)C)c(Cl)c1 (centres undefined)	> 300 µM
COc1cccc(CNCc2ccccn2)c1	> 300 µM
COC(CN)CC(C)C (centres undefined)	> 300 µM
OCCNCCNCc1ccc(-c2ccccc2F)o1	> 300 µM
CN(C)C(=O)Nc1cc(F)cc(F)c1	> 300 µM
CNCC(=O)NC(C)c1nc(-c2ccc(Br)cc2)no1 (centres undefined)	> 300 µM
CNc1nnc(-c2ccccc2)s1	> 300 µM
CCOC(=O)C(CN)CC(C)C (centres undefined)	> 300 µM
CC(C)C(=O)c1cnccc1N	> 300 µM
Cc1ccc(C(N)c2ccccn2)cc1 (centres undefined)	> 300 µM
NCc1nc(-c2ccc(Cl)cc2)c[nH]1	> 300 µM
CCN1CCN(c2cc(C#N)ccn2)CC1	> 300 µM
O=C1c2ccccc2OCC1CN1CCOCC1 (centres undefined)	> 300 µM
Cc1cccc(NC(C)c2ccc(S(N)(=O)=O)cc2)n1 (centres undefined)	> 300 µM
Cc1cc(N2CCN(CCO)CC2)nc2ccccc12	> 300 µM

The compounds below were run on Pseudomonas aeruginosa (assay: microbe, parasite or virus in culture). Conditions: ATCC 27853, 18 h, ASSAY_TEST Inhibition of Bacterial Growth, detection method Absorption (OD600), MEDIA CAMHB, plate type 384well, NBS, CORNING #3640.
Description: Antibacterial activity against Pseudomonas aeruginosa ATCC 27853 (CO-ADD:GN_042); MIC in CAMBH media using NBS plates, by OD(600)

SMILES	MIC
Cc1c(C(=O)NC2=NCCS2)oc2ccccc12	> 300 µM
NCC(O)c1ccc(-c2ccccc2)cc1 (centres undefined)	> 300 µM
NCCNc1ccc2ccccc2n1	> 300 µM
CC(C)CCC(=O)N[C@@H]1CN(C)C[C@H]1CN(C)C	> 300 µM
Cc1ccc(C(=O)N2CCN(c3nccs3)CC2)o1	> 300 µM
OCCCN(CCO)Cc1c(Cl)ccc2cccnc12	> 300 µM
c1cn2c(n1)COCC2	> 300 µM
Cc1cscc1C(=O)Nc1ncnn1C	> 300 µM
CC1COC2(CCN(C(=O)c3ccc(Cl)s3)CC2)O1 (centres undefined)	> 300 µM
CCc1cccc(S(=O)(=O)N2CCC(NC)C2)c1 (centres undefined)	> 300 µM
NCc1cnn(-c2ccc(Cl)cc2)c1	> 300 µM
OCCNCCNCc1ccc(-c2cccc(Cl)c2)o1	> 300 µM
c1ccc(Nc2nccs2)nc1	> 300 µM
CCc1cccc2c1OCCC2N (centres undefined)	> 300 µM
CC[C@H](CO)Nc1ccnc2cc(Br)cnc12	> 300 µM
O=C(NCCO)Nc1nc2ccccc2s1	> 300 µM
c1ccc(N2CCN(c3ncccn3)CC2)nc1	> 300 µM
CN(Cc1ccc(O)cc1)C(=O)c1cc(Cl)c[nH]1	> 300 µM
O=C(Nc1cc[nH]n1)c1csc(I)c1	> 300 µM
Cc1ccncc1NC1CS(=O)(=O)c2ccccc21 (centres undefined)	> 300 µM
O=C(CSCCO)Nc1ncc(-c2ccccc2)s1	> 300 µM
Cn1c(CN)nc2cc(Cl)ccc21	> 300 µM
CN1CCCC1CCSc1nc(N)c(C#N)cc1C#N (centres undefined)	> 300 µM
COc1c(C(=O)N2CCOCC2)sc2ccc(F)cc12	> 300 µM

SMILES	MIC
NCCS(=O)(=O)N1CCCc2ccccc21	> 300 µM
Cn1ncnc1NC(=O)c1ccc(C#N)cc1	200 µM (≈ 45.4 µg/mL)
C1CCC(C2CCNCC2)OC1 (centres undefined)	> 300 µM
CS(=O)(=O)c1ccc(CN)o1	> 300 µM
NS(=O)(=O)NCC1CCN(c2cccc(Br)c2)C1 (centres undefined)	> 300 µM
NCc1cccc(-c2nccs2)c1	> 300 µM
NC(=O)C1CCN(Cc2ccc(Br)c3cccnc23)C1 (centres undefined)	> 300 µM
N#Cc1nnc(-c2ccccc2)o1	> 300 µM
CSC(C)(C)COC(=O)c1ccc(-n2ccnc2)nc1	> 300 µM
CCC(C#N)NC(=O)c1cnc(OC(C)C)c(Cl)c1 (centres undefined)	> 300 µM
COc1cccc(CNCc2ccccn2)c1	> 300 µM
COC(CN)CC(C)C (centres undefined)	> 300 µM
OCCNCCNCc1ccc(-c2ccccc2F)o1	> 300 µM
CN(C)C(=O)Nc1cc(F)cc(F)c1	> 300 µM
CNCC(=O)NC(C)c1nc(-c2ccc(Br)cc2)no1 (centres undefined)	> 300 µM
CNc1nnc(-c2ccccc2)s1	> 300 µM
CCOC(=O)C(CN)CC(C)C (centres undefined)	> 300 µM
CC(C)C(=O)c1cnccc1N	> 300 µM
Cc1ccc(C(N)c2ccccn2)cc1 (centres undefined)	> 300 µM
NCc1nc(-c2ccc(Cl)cc2)c[nH]1	> 300 µM
CCN1CCN(c2cc(C#N)ccn2)CC1	> 300 µM
O=C1c2ccccc2OCC1CN1CCOCC1 (centres undefined)	> 300 µM
Cc1cccc(NC(C)c2ccc(S(N)(=O)=O)cc2)n1 (centres undefined)	> 300 µM
Cc1cc(N2CCN(CCO)CC2)nc2ccccc12	> 300 µM

Each compound was assayed on Acinetobacter baumannii (assay: microbe, parasite or virus in culture). Conditions: ATCC 19606, 18 h, ASSAY_TEST Inhibition of Bacterial Growth, detection method Absorption (OD600), MEDIA CAMHB, plate type 384well, NBS, CORNING #3640.
Description: Antibacterial activity against Acinetobacter baumannii ATCC 19606 (CO-ADD:GN_034); MIC in CAMBH media using NBS plates, by OD600

SMILES	MIC
Cc1c(C(=O)NC2=NCCS2)oc2ccccc12	> 300 µM
NCC(O)c1ccc(-c2ccccc2)cc1 (centres undefined)	> 300 µM
NCCNc1ccc2ccccc2n1	> 300 µM
CC(C)CCC(=O)N[C@@H]1CN(C)C[C@H]1CN(C)C	> 300 µM
Cc1ccc(C(=O)N2CCN(c3nccs3)CC2)o1	> 300 µM
OCCCN(CCO)Cc1c(Cl)ccc2cccnc12	> 300 µM
c1cn2c(n1)COCC2	> 300 µM
Cc1cscc1C(=O)Nc1ncnn1C	> 300 µM
CC1COC2(CCN(C(=O)c3ccc(Cl)s3)CC2)O1 (centres undefined)	> 300 µM
CCc1cccc(S(=O)(=O)N2CCC(NC)C2)c1 (centres undefined)	> 300 µM
NCc1cnn(-c2ccc(Cl)cc2)c1	> 300 µM
OCCNCCNCc1ccc(-c2cccc(Cl)c2)o1	> 300 µM
c1ccc(Nc2nccs2)nc1	> 300 µM
CCc1cccc2c1OCCC2N (centres undefined)	> 300 µM
CC[C@H](CO)Nc1ccnc2cc(Br)cnc12	> 300 µM
O=C(NCCO)Nc1nc2ccccc2s1	> 300 µM
c1ccc(N2CCN(c3ncccn3)CC2)nc1	> 300 µM
CN(Cc1ccc(O)cc1)C(=O)c1cc(Cl)c[nH]1	> 300 µM
O=C(Nc1cc[nH]n1)c1csc(I)c1	> 300 µM
Cc1ccncc1NC1CS(=O)(=O)c2ccccc21 (centres undefined)	> 300 µM
O=C(CSCCO)Nc1ncc(-c2ccccc2)s1	> 300 µM
Cn1c(CN)nc2cc(Cl)ccc21	> 300 µM
CN1CCCC1CCSc1nc(N)c(C#N)cc1C#N (centres undefined)	> 300 µM
COc1c(C(=O)N2CCOCC2)sc2ccc(F)cc12	> 300 µM

SMILES	MIC
NCCS(=O)(=O)N1CCCc2ccccc21	> 300 µM
Cn1ncnc1NC(=O)c1ccc(C#N)cc1	> 300 µM
C1CCC(C2CCNCC2)OC1 (centres undefined)	> 300 µM
CS(=O)(=O)c1ccc(CN)o1	> 300 µM
NS(=O)(=O)NCC1CCN(c2cccc(Br)c2)C1 (centres undefined)	> 300 µM
NCc1cccc(-c2nccs2)c1	> 300 µM
NC(=O)C1CCN(Cc2ccc(Br)c3cccnc23)C1 (centres undefined)	> 300 µM
N#Cc1nnc(-c2ccccc2)o1	> 300 µM
CSC(C)(C)COC(=O)c1ccc(-n2ccnc2)nc1	> 300 µM
CCC(C#N)NC(=O)c1cnc(OC(C)C)c(Cl)c1 (centres undefined)	> 300 µM
COc1cccc(CNCc2ccccn2)c1	> 300 µM
COC(CN)CC(C)C (centres undefined)	> 300 µM
OCCNCCNCc1ccc(-c2ccccc2F)o1	> 300 µM
CN(C)C(=O)Nc1cc(F)cc(F)c1	> 300 µM
CNCC(=O)NC(C)c1nc(-c2ccc(Br)cc2)no1 (centres undefined)	> 300 µM
CNc1nnc(-c2ccccc2)s1	> 300 µM
CCOC(=O)C(CN)CC(C)C (centres undefined)	> 300 µM
CC(C)C(=O)c1cnccc1N	> 300 µM
Cc1ccc(C(N)c2ccccn2)cc1 (centres undefined)	> 300 µM
NCc1nc(-c2ccc(Cl)cc2)c[nH]1	> 300 µM
CCN1CCN(c2cc(C#N)ccn2)CC1	> 300 µM
O=C1c2ccccc2OCC1CN1CCOCC1 (centres undefined)	> 300 µM
Cc1cccc(NC(C)c2ccc(S(N)(=O)=O)cc2)n1 (centres undefined)	> 300 µM
Cc1cc(N2CCN(CCO)CC2)nc2ccccc12	> 300 µM
